Measured values: patent US8404258B2, “External preparation for the skin” (Shiseido Company, Ltd., priority 2001, dated 2013)

Tested on: healthy volunteers (bent side of the forearm)
Assay: 24 hour-occlusion patch test (Finn Chamber) of the original specimen
Assay type: in vivo, human
Settings: 46 persons, 0.03 ml original specimen
Experimental: “Test Method Using Patch Test”
The test was conducted using a Finn Chamber (8 mm in diameter) with 24 hour-occlusion.
Test subjects were 46 male and female healthy volunteers (33 males and 13 females) whose ages range from 22 to 59 (average 42); 0.03 ml of the original specimen of alkylene polyglycol dineopentanoate was applied on the bent side of the forearm of the test subjects for 24 hours. The application site was secured with an elastic bandage; three hours after the removal of the bandage and the adhesive plaster the first evaluation (after-24-hours evaluation) was conducted according to the evaluation criteria of Table 1, and 24 hours later another evaluation (after-48-hours evaluation) was conducted with the same criteria.

| Molecule | Equivocal ± (mild erythema), number of subjects (evaluation time 24 hrs) | Negative − (no reaction), number of subjects (evaluation time 24 hrs) | Positive + (Weakly positive: erythema), number of subjects (evaluation time 24 hrs) | Positive ++ (Moderately positive: erythema + edema), number of subjects (evaluation time 24 hrs) | Positive +++ (Strongly positive), number of subjects (evaluation time 24 hrs) | Positive ++++ (Strongest positive: large blister), number of subjects (evaluation time 24 hrs) | Positive ratio (evaluation time 24 hrs) [%] | Equivocal ± (mild erythema), number of subjects (evaluation time 48 hrs) | Negative − (no reaction), number of subjects (evaluation time 48 hrs) | Positive + (Weakly positive: erythema), number of subjects (evaluation time 48 hrs) | Positive ++ (Moderately positive: erythema + edema), number of subjects (evaluation time 48 hrs) | Positive +++ (Strongly positive), number of subjects (evaluation time 48 hrs) | Positive ++++ (Strongest positive: large blister), number of subjects (evaluation time 48 hrs) | Positive ratio (evaluation time 48 hrs) [%] |
| --- | --- | --- | --- | --- | --- | --- | --- | --- | --- | --- | --- | --- | --- | --- |
| CC(COC(=O)C(C)(C)C)OCC(C)OCC(C)OCC(C)OC(=O)C(C)(C)C (stereo not shown) [Example 3, Tetrapropyleneglycol dineopentanoate] | 0 | 46 | 0 | 0 | 0 | 0 | 0 | 0 | 46 | 0 | 0 | 0 | 0 | 0 |
| CC(COC(=O)C(C)(C)C)OCC(C)OCC(C)OC(=O)C(C)(C)C (stereo not shown) [Example 1, Tripropyleneglycol dineopentanoate] | 0 | 46 | 0 | 0 | 0 | 0 | 0 | 0 | 46 | 0 | 0 | 0 | 0 | 0 |
| CCCCCCCCC(=O)OCCCCCCC(C)C [compound 3, Isononyl nonanoate, reference compound] | 5 | 31 | 5 | 4 | 1 | 0 | 22 | 5 | 32 | 4 | 5 | 0 | 0 | 20 |
| Isocetyl oleate [compound 1, reference compound] | 3 | 39 | 2 | 2 | 0 | 0 | 8.7 | 2 | 40 | 4 | 0 | 0 | 0 | 8.7 |
| CC(COC(=O)C(C)(C)C)OCC(C)OC(=O)C(C)(C)C (stereo not shown) [Example 2, Dipropyleneglycol dineopentanoate] | 0 | 46 | 0 | 0 | 0 | 0 | 0 | 0 | 46 | 0 | 0 | 0 | 0 | 0 |
